Results: the supplement of paper PMC10307832

Legend:
Experiment in all cases: relative viability (nuclei count vs DMSO), 5 days (fraction); higher = more cells survive
[1] = compound: CC1(C)CNc2cc(NC(=O)c3cccnc3NCc3ccncc3)ccc21 [Motesanib] + CC1(C)CCC(c2ccc(Cl)cc2)=C(CN2CCN(c3ccc(C(=O)NS(=O)(=O)c4ccc(N[C@H](CCN5CCOCC5)CSc5ccccc5)c(S(=O)(=O)C(F)(F)F)c4)cc3)CC2)C1 [Navitoclax] (partner 0.5 µM)
Outline: (§1)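 Lung cancer cell lines were pin-tool dosed in 1536-well plates on the day after seeding, with either a lone drug or a fixed anchor-drug dose plus five library-drug doses (not always all listed) in √10 steps. Nuclei were counted on 4× images after 5 days. Relative viability is the ratio of treated-well to vehicle-well nuclei counts, with each value a median of duplicate plates.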

[2] = compound: CC1(C)CNc2cc(NC(=O)c3cccnc3NCc3ccncc3)ccc21 [Motesanib] + CS(=O)(=O)CCNCc1ccc(-c2ccc3ncnc(Nc4ccc(OCc5cccc(F)c5)c(Cl)c4)c3c2)o1 [Lapatinib] (partner 2 µM)
Outline: as §1

[3] = compound: C[C@@]1(C(=O)Nc2ccc(F)nc2)CCCN1c1nc(Nc2cc(C3CC3)n[nH]2)c2cccn2n1 + CCNC(=O)c1noc(-c2cc(C(C)C)c(O)cc2O)c1-c1ccc(CN2CCOCC2)cc1 [Luminespib] (partner 0.01 µM)
Outline: as §1

[4] = compound: C[C@@]1(C(=O)Nc2ccc(F)nc2)CCCN1c1nc(Nc2cc(C3CC3)n[nH]2)c2cccn2n1 + Cc1nc(Nc2ncc(C(=O)Nc3c(C)cccc3Cl)s2)cc(N2CCN(CCO)CC2)n1 [Dasatinib] (partner 0.075 µM)
Outline: as §1

| Cell Line | relative viability ([1]; first compound 0.01 µM) | relative viability ([1]; first compound 0.03162 µM) | relative viability ([1]; first compound 0.1 µM) | relative viability ([1]; first compound 0.3162 µM) | relative viability ([1]; first compound 1 µM) | relative viability ([2]; first compound 0.01 µM) | relative viability ([2]; first compound 0.03162 µM) | relative viability ([2]; first compound 0.1 µM) | relative viability ([2]; first compound 0.3162 µM) | relative viability ([2]; first compound 1 µM) | relative viability ([3]; first compound 0.04 µM) | relative viability ([3]; first compound 0.1265 µM) | relative viability ([3]; first compound 0.4 µM) | relative viability ([3]; first compound 1.265 µM) | relative viability ([4]; first compound 0.04 µM) | relative viability ([4]; first compound 0.1265 µM) | relative viability ([4]; first compound 0.4 µM) | relative viability ([4]; first compound 1.265 µM) |
| --- | --- | --- | --- | --- | --- | --- | --- | --- | --- | --- | --- | --- | --- | --- | --- | --- | --- | --- |
| HOP-62 | 1.12 | 0.939 | 1.07 | 1.15 | 1.26 | 0.968 | 0.97 | 0.957 | 1.33 | 1.09 | 0.999 | 0.789 | 0.906 | 1.01 | 0.662 | 0.565 | 0.469 | 0.374 |
| HARA | 1.11 | 1.18 | 1.21 | 1.2 | 1.22 | 0.698 | 0.668 | 0.77 | 0.742 | 0.804 | 0.72 | 0.73 | 0.585 | 0.881 | 0.297 | 0.203 | 0.188 | 0.163 |
| NCI-H838 | 1.25 | 1.21 | 1.09 | 1.25 | 1.14 | 0.98 | 1.03 | 0.914 | 1.19 | 1.02 | 0.296 | 0.291 | 0.183 | 0.338 | 0.299 | 0.198 | 0.187 | 0.213 |
| NCI-H1755 | 0.938 | 0.966 | 1.02 | 0.991 | 1 | 1.02 | 1.05 | 1.08 | 1.28 | 0.997 | 0.616 | 0.357 | 0.406 | 0.437 | 0.29 | 0.262 | 0.241 | 0.171 |
| NCI-H322M | 1.19 | 1.32 | 1.33 | 1.2 | 1.23 | 0.553 | 0.372 | 0.696 | 0.587 | 0.566 | 0.583 | 0.405 | 0.406 | 0.566 | 0.239 | 0.197 | 0.241 | 0.225 |
| NCI-H3122 | 0.937 | 1.04 | 0.981 | 1.06 | 1.04 | 0.991 | 1.03 | 0.965 | 1.03 | 1.02 | 0.0763 | 0.0863 | 0.0793 | 0.0682 | 0.581 | 0.786 | 0.348 | 0.677 |
| COR-L23 | 1.01 | 0.936 | 1.08 | 1.06 | 0.972 | 0.931 | 0.929 | 1.01 | 0.996 | 1.08 | 0.714 | 0.65 | 0.449 | 0.45 | 0.433 | 0.334 | 0.214 | 0.219 |
| NCI-H2087 | 0.92 | 1.14 | 0.997 | 0.902 | 1.03 | 1.23 | 0.923 | 1.23 | 1.38 | 1.1 | 0.122 | 0.175 | 0.123 | 0.145 | 0.727 | 0.568 | 0.508 | 0.389 |
| LC-2-ad | 0.405 | 0.381 | 0.522 | 0.402 | 0.4 | 0.947 | 0.921 | 0.999 | 1.1 | 0.843 | 0.97 | 0.859 | 0.719 | 0.599 | 0.363 | 0.328 | 0.235 | 0.196 |
